Measurements: patent US9233237B2, “Apparatus and method for periodic fluid-delivery/fluid-removal cycles in the cranial subarachnoid space to treat cerebral cortical disorders” (NEW YORK UNIVERSITY, priority 2010, dated 2016)

System: monkey
Experiment: EEG effects of drugs delivered through the implanted subdural/subarachnoid sheet body in a monkey
Format: in vivo
Conditions: acetylcholine-induced EEG seizure, delivery through the sheet body over right frontal cortex (FIG. 8)
Procedure: In this experiment, drugs with known pharmacological actions were delivered through the sheet body 102 to test whether the inlet and outlet ports 112, 114 were clogged or obstructed, with the effects of the administered drugs monitored via EEG electrode contacts 113 integrated into the sheet body 102. The experiment was performed in a monkey approximately three months after the implantation of the sheet body 102 over the animal's right frontal cortex and the implantation of the control unit 130. During this post-surgical period, the delivery fluid was saline. On the day of this experiment, the mini-pump was temporarily modified to deliver a seizure-inducing agent (acetylcholine) through the sheet body 102, followed by a delivery of an antiepileptic drug (muscimol) through the same route. Traces 1 to 3 of FIG. 6 represent EEG recordings obtained with the EEG electrodes integrated into the subarachnoid sheet (ipsilateral recording channels 1, 2 and 3). The fourth trace of FIG. 6 was obtained from a subdural/subarachnoid electrode placed, during device implantation, in the left-side frontal cortex (contralateral recording channel).

With `NCc1cc(=O)[nH]o1` [muscimol] the “time to stop of EEG seizure after delivery” value was at most 2 min.
